Consider 1 compound from patent US7226936B2, “Pyridinic sulfonamide derivatives method of production and use thereof” (University De Liege, priority 2001, dated 2007).

The target in one assay is T1, COX-2 (Homo sapiens, UniProt P35354).
T1 construct: endogenous in cells; host or cells: whole blood (blood cells)
T1 sequence (P35354 18-604): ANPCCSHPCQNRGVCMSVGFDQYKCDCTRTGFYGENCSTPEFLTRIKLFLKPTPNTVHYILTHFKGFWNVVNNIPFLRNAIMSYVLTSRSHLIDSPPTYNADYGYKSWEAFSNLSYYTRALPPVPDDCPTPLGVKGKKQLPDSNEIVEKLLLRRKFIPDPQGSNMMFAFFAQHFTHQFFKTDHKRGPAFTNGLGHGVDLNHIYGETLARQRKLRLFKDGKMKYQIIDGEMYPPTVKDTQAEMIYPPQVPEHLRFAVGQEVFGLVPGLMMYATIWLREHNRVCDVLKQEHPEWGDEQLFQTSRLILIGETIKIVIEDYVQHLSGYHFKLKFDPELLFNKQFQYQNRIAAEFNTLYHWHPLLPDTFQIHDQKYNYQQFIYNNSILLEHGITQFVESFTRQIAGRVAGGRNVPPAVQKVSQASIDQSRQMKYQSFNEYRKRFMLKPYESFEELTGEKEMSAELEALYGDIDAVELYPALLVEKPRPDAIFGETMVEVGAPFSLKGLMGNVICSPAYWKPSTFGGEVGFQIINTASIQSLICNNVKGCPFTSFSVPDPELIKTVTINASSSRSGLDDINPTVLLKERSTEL
In words: whole blood assay, COX-2 inhibition. It is filed as cell-based.

The subject of another assay is rat paw oedema. In words: Carrageenin-induced rat paw oedema model. Format: in vivo, Wistar rats. Conditions: for percentage of growth of the paw after injection of carrageneen: 1 h before carrageenin, paw weighed 3 h after, mean±standard deviation, n=6, control 96 ± 8.7. The method, then:
The activity of the derivatives has also been evaluated by using a rat paw oedema pharmacological model.
In Carrageenin-induced rat paw oedema model, Wistar rats were used. The mean weight of the animals was 250 g. The animals were treated with an intraperitoneal injection of the drug at the appropriate concentration (solution at the concentration of 10 mg/mL in DMSO). Lambda carrageenin (0.1 mL; 1%) was injected one hour later in the plantar region of the right hand paw. Three hours thereafter, the rats were euthanasied by injection of nembutal (100 mg/kg) and the paws were cutted at the ankle. The swelling was calculated as a percentage increase in the weight of the control paw.
Results are expressed as percentage of growth of the paw after injection of carrageneen (mean±standard deviation, n=6).

`O=S(=O)(Nc1ccncc1Oc1ccccc1)C(F)(F)F` [Compound 1, N-(3-phenoxy-4-pyridinyl)trifluoromethane-sulfonamide]: the “activity as COX-2 inhibitor (in words)” value at COX-2 (conclusion from Table 1) is on record as “active as COX-2 inhibitor”. Also, at COX-2 (estimated IC50, whole blood assay), the half-inhibitory concentration (IC50) was 400 nM. For the same compound, the “percentage of growth of the paw after injection of carrageneen” value came out at 101.0 ± 8.1 percentage in the assay on rat paw oedema (5 mg/kg intraperitoneal), 74.7 ± 7.2 percentage in the assay on rat paw oedema (10 mg/kg intraperitoneal) and 54.1 ± 17.5 percentage with rat paw oedema (30 mg/kg intraperitoneal). Moreover, in the assay with rat paw oedema (conclusion from Table 2), the “anti-inflammatory effect in vivo (in words)” value was “presents an anti-inflammatory effect in vivo”.
